Usually EC50 stands for the concentration giving half of the maximal effect. Usually IC50 stands for the midpoint of a concentration-inhibition curve.

The values that follow come from US11667652B2, “MCL1 inhibitors” (Gilead Sciences, Inc., priority 2019, dated 2023).

Like-named read-outs stand apart in the source and are kept apart here.

One assay relates to SKBR3 cells. Description: SKBR3 Cell Viability Assay. The class given is cell-based. The note with it: CellTiter Glo, read-out: MCL1 CV SKBR3 EC50. Summed up: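 SKBR3 cells (6,000/well, McCoy's 5A + 10% FBS) were added onto pre-spotted serial compound dilutions and incubated 72 h at 37° C, 5% CO2. Viability was read by CellTiter-Glo luminescence, with % inhibition normalised to DMSO (negative) and 10 μM puromycin (positive).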
For orientation: Cellular ATP, detected with luciferase, serves as a proxy for viable cell number.

For a further assay, the target named is MCL1/Bim (Homo sapiens (Human), UniProt Q07820). As to the kind of experiment: MCL1/Bim Binding AlphaLISA Assay. The note with it: recombinant human 6xHis-MCL1 (171-327), biotinylated Bim peptide (51-76). A digest of the protocol:
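AlphaLISA with 0.0625 nM human 6×His-MCL1 (171-327) and 0.0625 nM biotinylated Bim (51-76) peptide in 20 mM Hepes pH 7.5, 150 mM NaCl, 0.002% Brij 35, 1 mM DTT, 0.01% BSA. Compound preincubated with MCL1 1 h, Bim added 2 h, then acceptor and donor beads 1 h each; % inhibition versus DMSO and no-protein/peptide controls.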

Where [1] appears, read: Homo sapiens, SK-BR-3, 72 hours.

Chain of MCL1/Bim (Q07820 171-327): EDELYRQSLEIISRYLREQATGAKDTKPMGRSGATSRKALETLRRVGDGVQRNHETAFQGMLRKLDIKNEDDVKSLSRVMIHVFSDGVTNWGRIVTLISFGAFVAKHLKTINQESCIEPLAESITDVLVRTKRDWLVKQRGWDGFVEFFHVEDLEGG

Turning to `COc1nn(C)cc1C(=O)N[S@@]1(=O)=NC(=O)c2ccc3c(c2)N(C[C@@H]2CC[C@H]2[C@@H](OC)C[C@H]2CCO[C@@H]2[C@H](C)[C@H]1C)C[C@@]1(CCCc2cc(Cl)ccc21)CO3` [Example 159], in the assay on SKBR3 cells (72 hours), the EC50 worked out at 381 nM. Also, the IC50 at MCL1/Bim was determined as 0.689 nM.

As to `COc1nn(C)cc1C(=O)N[S@@]1(=O)=NC(=O)c2ccc3c(c2)N(C[C@@H]2CC[C@H]2[C@@H](OC)C[C@H]2CCO[C@@H]2CC1)C[C@@]1(CCCc2cc(Cl)ccc21)CO3` [Example 160], in the assay on SKBR3 cells (setting [1]), the EC50 was found to be 331 nM. Besides, at MCL1/Bim, the IC50 came out at 0.214 nM.

On to `COc1nn(C)cc1C(=O)N[S@@]1(=O)=NC(=O)c2ccc3c(c2F)N(C[C@@H]2CC[C@H]2[C@@H](OC)/C=C/C[C@H](C)C1)C[C@@]1(CCCc2cc(Cl)ccc21)CO3` [Example 161], for which, in the assay on SKBR3 cells (setting [1]), the EC50 stood at 33.8 nM. Further, the IC50 at MCL1/Bim came to 0.089 nM.

As for `COc1nn(C)cc1C(=O)N[S@@]1(=O)=NC(=O)c2ccc3c(c2F)N(C[C@@H]2CC[C@H]2C(OC)/C=C/[C@H](OC)[C@H](C)C1)C[C@@]1(CCCc2cc(Cl)ccc21)CO3` (stereo partly shown) [Example 162], in the assay with SKBR3 cells (setting [1]), the EC50 is 27.7 nM. Besides, at MCL1/Bim, the IC50 stood at 0.053 nM.

As to `CCn1cc(C(=O)N[S@@]2(=O)=NC(=O)c3ccc4c(c3)N(C[C@@H]3CC[C@H]3[C@@H](OC)/C=C/C[C@H](C)C2)C[C@]2(CO4)C[C@@H]3C[C@@H]3c3cc(Cl)ccc32)cn1` [Example 164], the EC50 in the assay with SKBR3 cells (setting [1]) is 88.1 nM. Also, at MCL1/Bim, the IC50 is 0.105 nM.

As for `CO[C@H]1/C=C/C[C@H](C)C[S@@](=O)(NC(=O)NCC2CC2)=NC(=O)c2ccc3c(c2)N(C[C@@H]2CC[C@H]21)C[C@]1(CO3)C[C@@H]2C[C@@H]2c2cc(Cl)ccc21` [Example 165], in the assay with SKBR3 cells (setting [1]), the EC50 came out at 369 nM. Moreover, the IC50 on MCL1/Bim is 0.18 nM.

With `CO[C@H]1/C=C/C[C@H](C)C[S@@](=O)(NC(=O)NC2CC2)=NC(=O)c2ccc3c(c2)N(C[C@@H]2CC[C@H]21)C[C@]1(CO3)C[C@@H]2C[C@@H]2c2cc(Cl)ccc21` [Example 166], the EC50 in the assay on SKBR3 cells (setting [1]) was 190 nM. The IC50 at MCL1/Bim is 0.171 nM.

Take `CO[C@H]1/C=C/C[C@H](C)C[S@@](=O)(NC(=O)c2cnn(C)c2)=NC(=O)c2ccc3c(c2)N(C[C@@H]2CC[C@H]21)C[C@]1(CO3)C[C@@H]2C[C@@H]2c2cc(Cl)ccc21` [Example 167]: the EC50 in the assay with SKBR3 cells (setting [1]) came to 46.3 nM. For the same compound, the IC50 on MCL1/Bim turned out to be 0.101 nM.

With `CO[C@H]1/C=C/C[C@H](C)C[S@@](=O)(NC(=O)c2cc3n(c2)CCOC3)=NC(=O)c2ccc3c(c2)N(C[C@@H]2CC[C@H]21)C[C@]1(CO3)C[C@@H]2C[C@@H]2c2cc(Cl)ccc21` [Example 168], the EC50 with SKBR3 cells (setting [1]) is 94 nM. The IC50 at MCL1/Bim came to 0.233 nM.

Take `CO[C@H]1/C=C/C[C@H](C)[C@@H](C)[S@@](=O)(NC(=O)COC2CCOCC2)=NC(=O)c2ccc3c(c2)N(C[C@@H]2CC[C@H]21)C[C@]1(CO3)C[C@@H]2C[C@@H]2c2cc(Cl)ccc21` [Example 169]: the EC50 with SKBR3 cells (setting [1]) came to 215 nM. The IC50 on MCL1/Bim was 0.048 nM.

Take `CCn1cc(C(=O)N[S@@]2(=O)=NC(=O)c3ccc4c(c3)N(C[C@@H]3CC[C@H]3[C@@H](OC)/C=C/C[C@H](C)[C@H]2C)C[C@]2(CO4)C[C@@H]3C[C@@H]3c3cc(Cl)ccc32)cn1` [Example 170]: the EC50 in the assay on SKBR3 cells (setting [1]) is 113 nM. Moreover, at MCL1/Bim, the IC50 was 0.155 nM.

With `CO[C@H]1/C=C/C[C@H](C)[C@@H](C)[S@@](=O)(NC(=O)c2cc3n(c2)CCOC3)=NC(=O)c2ccc3c(c2)N(C[C@@H]2CC[C@H]21)C[C@]1(CO3)C[C@@H]2C[C@@H]2c2cc(Cl)ccc21` [Example 172], in the assay on SKBR3 cells (setting [1]), the EC50 turned out to be 160 nM. Further, at MCL1/Bim, the IC50 was determined as 0.605 nM.

On to `CO[C@H]1/C=C/CCC[S@@](=O)(NC(=O)c2cnn(C)c2)=NC(=O)c2ccc3c(c2)N(C[C@@H]2CC[C@H]21)C[C@]1(CO3)C[C@@H]2C[C@@H]2c2cc(Cl)ccc21` [Example 173], for which the EC50 in the assay with SKBR3 cells (setting [1]) came to 310 nM. The IC50 at MCL1/Bim was 0.1 nM.

As for `CO[C@H]1/C=C/CCC[S@@](=O)(NC(=O)c2cc3n(c2)CCOC3)=NC(=O)c2ccc3c(c2)N(C[C@@H]2CC[C@H]21)C[C@]1(CO3)C[C@@H]2C[C@@H]2c2cc(Cl)ccc21` [Example 174], the EC50 in the assay on SKBR3 cells (setting [1]) was determined as 354 nM. For the same compound, the IC50 at MCL1/Bim came out at 0.25 nM.

As for `CO[C@H]1/C=C/CCC[S@@](=O)(NC(=O)NC2CC2)=NC(=O)c2ccc3c(c2)N(C[C@@H]2CC[C@H]21)C[C@]1(CO3)C[C@@H]2C[C@@H]2c2cc(Cl)ccc21` [Example 175], in the assay with SKBR3 cells (setting [1]), the EC50 turned out to be 638 nM. In addition, the IC50 at MCL1/Bim amounted to 0.24 nM.

For the compound `CO[C@H]1/C=C/C[C@H](C)C[S@@](=O)(NC(=O)c2cnn(C)c2)=NC(=O)c2ccc3c(c2)N(C[C@@H]2CC[C@H]21)C[C@]1(CO3)SCCc2cc(Cl)ccc21` [Example 176], in the assay on SKBR3 cells (setting [1]), the EC50 came out at 72.5 nM. Also, the IC50 at MCL1/Bim worked out at 0.06 nM.

Turning to `CCn1cc(C(=O)N[S@@]2(=O)=NC(=O)c3ccc4c(c3)N(C[C@@H]3CC[C@H]3[C@@H](OC)/C=C/C[C@H](C)C2)C[C@]2(CO4)SCCc3cc(Cl)ccc32)cn1` [Example 178], in the assay on SKBR3 cells (setting [1]), the EC50 was found to be 25.9 nM. On MCL1/Bim, the IC50 came to 0.05 nM.

Consider `CO[C@H]1/C=C/C[C@H](C)C[S@@](=O)(NC(=O)c2cc3n(c2)CCOC3)=NC(=O)c2ccc3c(c2)N(C[C@@H]2CC[C@H]21)C[C@]1(CO3)SCCc2cc(Cl)ccc21` [Example 179], for which the EC50 in the assay with SKBR3 cells (setting [1]) is 24.1 nM. Also, the IC50 on MCL1/Bim was 0.07 nM.

Turning to `CO[C@H]1/C=C/C[C@H](C)[C@@H](C)[S@@](=O)(NC(=O)c2cnn(C)c2)=NC(=O)c2ccc3c(c2)N(C[C@@H]2CC[C@H]21)C[C@]1(CO3)SCCc2cc(Cl)ccc21` [Example 180], in the assay on SKBR3 cells (setting [1]), the EC50 came out at 24.9 nM. The IC50 at MCL1/Bim worked out at 0.06 nM.

For the compound `CO[C@H]1/C=C/C[C@H](C)[C@@H](C)[S@@](=O)(NC(=O)c2cc3n(c2)CCOC3)=NC(=O)c2ccc3c(c2)N(C[C@@H]2CC[C@H]21)C[C@]1(CO3)SCCc2cc(Cl)ccc21` [Example 181], the EC50 in the assay on SKBR3 cells (setting [1]) was 57 nM. Also, on MCL1/Bim, the IC50 amounted to 0.27 nM.

For `CO[C@H]1/C=C/CCC[S@@](=O)(NC(=O)NC2CC2)=NC(=O)c2ccc3c(c2)N(C[C@@H]2CC[C@H]21)C[C@]1(CO3)SCCc2cc(Cl)ccc21` [Example 183], the EC50 in the assay on SKBR3 cells (setting [1]) was 454 nM. The IC50 at MCL1/Bim was 0.24 nM.

`CO[C@H]1/C=C/CCC[S@@](=O)(NC(=O)c2cc3n(c2)CCOC3)=NC(=O)c2ccc3c(c2)N(C[C@@H]2CC[C@H]21)C[C@]1(CO3)SCCc2cc(Cl)ccc21` [Example 184]: in the assay with SKBR3 cells (setting [1]), the EC50 worked out at 262 nM. Besides, the IC50 on MCL1/Bim amounted to 0.26 nM.

For `CO[C@H]1/C=C/C[C@H](C)C[S@@](=O)(NC(=O)c2cnn(C)c2)=NC(=O)c2ccc3c(n2)N(C[C@@H]2CC[C@H]21)C[C@@]1(CCCc2cc(Cl)ccc21)CO3` [Example 185], in the assay with SKBR3 cells (setting [1]), the EC50 amounted to 17.2 nM. The IC50 on MCL1/Bim was determined as 0.04 nM.

As to `CO[C@H]1/C=C/C[C@H](C)C[S@@](=O)(NC(=O)c2cc3n(c2)CCOC3)=NC(=O)c2ccc3c(n2)N(C[C@@H]2CC[C@H]21)C[C@@]1(CCCc2cc(Cl)ccc21)CO3` [Example 186], in the assay with SKBR3 cells (setting [1]), the EC50 was determined as 26.6 nM. The IC50 on MCL1/Bim worked out at 0.07 nM.

For the compound `CO[C@H]1/C=C/C[C@H](C)C[S@@](=O)(NC(=O)NC2CC2)=NC(=O)c2ccc3c(n2)N(C[C@@H]2CC[C@H]21)C[C@@]1(CCCc2cc(Cl)ccc21)CO3` [Example 187], in the assay with SKBR3 cells (setting [1]), the EC50 came out at 47.8 nM. The IC50 on MCL1/Bim was found to be 0.04 nM.

Take `CO[C@H]1/C=C/C[C@H](C)C[S@@](=O)(NC(=O)[C@H]2C[C@](C)(O)C2)=NC(=O)c2ccc3c(n2)N(C[C@@H]2CC[C@H]21)C[C@@]1(CCCc2cc(Cl)ccc21)CO3` [Example 189]: the EC50 in the assay with SKBR3 cells (setting [1]) is 71.8 nM. Besides, the IC50 at MCL1/Bim was 0.07 nM.
